{"source": "patent US10495630B2", "about": "“Methods for the determination of compounds or compositions for the treatment of lipofuscin related diseases and compounds or compositions” (KATAIRO GMBH, priority 2014, dated 2019)", "key": {"[1]": {"experiment": "In vitro (cell-free) degradation of A2E in aqueous solution, LCMS", "format": "biochemical", "conditions": "for A2E / A2E (% control): A2E 20 μM + verteporfin 25 μM; for A2E (% control): control = A2E non-illuminated", "procedure": "The degradation of N-retinylidene-N-retinylethanolamine (A2E)—component of lipofuscin—in an aqueous solution water was measured in the presence of potential degradation mediators and light illumination.\nIn a cell-free assay, A2E was dissolved in deionized H2O in a concentration of 20 μM and the solution was divided into two parts. To one part of the A2E solution verteporfin was added in an amount of 25 μM. […]\nThe amounts of A2E and its epoxides (A2E+O, A2E+2O) remaining were quantified by combined liquid chromatography and mass spectroscopy (LCMS) using the transitions indicated in Table 1."}, "melanin A2E particles": {"tested_on": "melanin A2E particles", "experiment": "Assay for binding to A2E melanin particles", "design": "species or system S. officinalis", "conditions": "FIG. 3A; 37° C., 4 h", "procedure": "To study the binding of A2E to melanin, a suspension of 2 mg/ml natural melanin (S. officinalis) is prepared in PBS, pH 7.4. The melanin suspension is brought to 37° C. and sonicated for 15 min to form a uniform suspension. The melanin suspension (0.75 ml) is measured in aliquots into glass test tubes (12×75 mm) under continuous shaking to avoid sedimentation. The solution of A2E (0.75 ml) is added to the above-mentioned melanin aliquots, and the tubes will be incubated in a shaker incubator at 37° C. and 300 rpm for 4 h.\nControls are prepared by incubating A2E in the absence of melanin in incubation medium and by incubating melanin without A2E. Compounds are added to melanin suspension from stock solutions. After incubation, the suspensions are centrifuged at 13,000 rpm for 15 min at room temperature to remove the melanin granules. The supernatant is collected, diluted with acetonitrile and analyzed by an LC-MS/MS method to determine the concentration of […] in the supernatant. The kinetic parameters of binding study, i.e., maximal binding capacity (rmax) and the binding affinity (k) are determined for A2E according to the previously reported method (Cheruvu et al., 2008).\nA high percentage of soraprazan and demethoxysoraprazan—about 46% and about 53%, respectively—are found bound to the melanin A2E particles."}, "[2]": {"tested_on": "HuRPE, RPE cells isolated from human donor eyes that contain melanin and lipofuscin", "experiment": "Cellular verteporfin uptake in HuRPE cells", "format": "in vitro ADME", "conditions": "for Verteporfin in the cells after incubation: medium with 278 nM Verteporfin", "procedure": "(§1) For testing factors influencing the cellular uptake of verteporfin to two cell types used:\nHuRPE, RPE cells isolated from human donor eyes that contain melanin and lipofuscin\n(§2) The cells were treated with 200 μl of a culture medium that contained 278 nM Verteporfin for the indicated time, the culture medium was discarded, the cells trypsinized, resuspended in 500 μl medium and counted."}, "[3]": {"tested_on": "ARPE-19, a human RPE cell line that lacks melanin and lipofuscin", "experiment": "Cellular verteporfin uptake in ARPE-19 cells", "format": "in vitro ADME", "conditions": "for Verteporfin in the cells after incubation: medium with 278 nM Verteporfin", "procedure": "as §1\nARPE-19, a human RPE cell line that lacks melanin and lipofuscin\nas §2"}, "[4]": {"tested_on": "patient with putative dry AMD", "experiment": "Clinical use of the photosensitizer to treat AMD, blue light laser retinal fluorescence", "format": "in vivo", "conditions": "intravenous 6 mg/m^2 or ca 4 μg intravitreal; days 7, 14 and 28 versus pre-treatment", "procedure": "A patient with putative dry AMD is examined and baseline retinal fluorescence is determined using the blue laser imaging device (Heidelberg engineering). The patient is subject to an intravenous dose of 6 mg/m^2 verteporf in by means of infusion of 30 ml over 10 minutes. An alternative to intravenous application is the direct intravitreal application of verteporf in. In this case, ca 4 μg of verteporfin is administered to an affected single eye. Fluorescence after 1, 2 and 4 weeks is compared with fluorescence at baseline. The eyes are treated alternately.\nIn the standard verteporfin treatment, fifteen minutes after the start of the infusion, a laser light at 689 nm delivered 50 J/cm^2 by application of an intensity of 600 mW/cm^2 over 83 seconds using a spot size with a diameter 1000 μm. […] After administration of verteporfin to a patient an exposure of the eyes of the patient to mild indoor light of about 500 lux. Alternatively, low filtering sunglasses can be used as a means to maintain an exposure of the eyes of the patient to 500 lux when outdoors. The exposure should be maintained for a period of at least 6 h per day.\nBlue light laser retinal fluorescence is measured at days 7, 14 and 28 after treatment and compared with pre-treatment values. Specific reductions of retinal fluorescence>1-20% are on post-treatment examination. […]"}, "Abca4 (−/−) mice [5]": {"tested_on": "Abca4 (−/−) mice", "experiment": "Verteporfin injection into the vitreous of Abca4 (−/−) mice, micrographs of semi-thin sections", "format": "in vivo", "conditions": "2 μl intravitreal, 12 month old mice, four weeks after injection, normal daylight", "procedure": "2 μl of a Verteporfin solution were injected into the vitreous of eyes from Abca4 (−/−) mice (12 month old) which lack the Abca4 transporter in the disk membranes of photoreceptors. Four weeks after injection the eyes of the mice were enucleated, embedded into the epoxy resin Epon™ and cut into semi-thin sections. As a control eyes of age-matched untreated mice lacking the Abca4 transporter were prepared in the same way. […] The RPE cell layer is marked by arrows in the Figure. Comparing the micrographs of the semi-thin section of eyes of untreated (FIG. 5a) and treated (FIG. 5b) mice the cytoplasm of the RPE cells of untreated mice appears much denser due to the targeting of confluent lipofuscin components. […] In treated eyes predominately melanin granules remained in the cytoplasm of RPE cells."}, "Abca4 (−/−) mice [6]": {"tested_on": "Abca4 (−/−) mice", "experiment": "A2E concentration in eyes of Abca4 (−/−) mice after intravitreal injection, HPLCMSMS", "format": "in vivo", "conditions": "for response vs control in vivo at 20000 µg/mL: Mus musculus, read-out: % of A2E relative to age matched untreated", "from_the_text": "[…] […] The left eye was not treated and maintained as a control. Untreated eyes of age-matched mice lacking the Abca4 transporter were an additional control.\nThe concentration in each treated eye was then expressed as a percentage of the average concentration in all untreated eyes in the mice of the same age.\nThe left eye was not treated and maintained as a control. Untreated eyes of age-matched mice lacking the Abca4 transporter were an additional control.\nThe left eye was not treated and maintained as a control. Untreated eyes of age-matched mice lacking the Abca4 transporter were an additional control. […] Tryptophan is capable of absorbing and re-radiating light energy, as is riboflavin.\nWater solutions were diluted 1:3 with acetonitrile and then sealed in vials for injection. 6 μL of the water acetonitrile solutions were injected onto a 2×50 mm Phenyl derived HPLC column (3 μm) and eluted with a gradient from 20% acetonitrile to 100% acetonitrile over 4 minutes at a flow rate of 500 μL/minute."}, "[7]": {"experiment": "Solubility remark on the test substance", "format": "physicochemical", "conditions": "compared with the other tetracycline test substances, 20 mg/ml solution or suspension"}, "[8]": {"tested_on": "human retinal pigment epithelium (RPE) cells", "experiment": "Degradation of lipofuscin in human RPE cells (micrographs after one week)", "format": "cell-based", "conditions": "test compound alone (SAD 50 μg/ml; cardioxane 10, 50 or 100 μM), one week incubation", "procedure": "To explore the role of the reactive chemical species the human retinal pigment epithelium (RPE) cells were treated with the super oxide anion donor (SAD) soraprazan ((7R,8R,9R)-2,3-Dimethyl-8-hydroxy-7-ethoxy-9-phenyl-7,8,9,10-tetrahydro-imidazo-[1,2-h][1,7]-naphthyridin)—a member of the THPE family—either alone or in combination with a known radical oxygen scavenger, cardioxane.\nAfter growing the hRPE-cells to confluence, the test compounds were added to seven cell cultures and the cells were incubated at 37° C. and 5% CO2. The SAD was added to the cell cultures in a concentration of 50 μg/ml either alone or in combination with cardioxane in a concentration of 10 μM, 50 μM or 100 μM. Additionally, three cell cultures were incubated only with cardioxane in a concentration of 10 μM, 50 μM or 100 μM. As control, one cell culture was grown without test compounds.\nAfter one week of incubation micrographs of the differently incubated RPE cells were taken as shown in FIG. 2A to H. In the original images, lipofuscin in cells is visible as a yellow-gold-orange fluorescent structure, before a blue background. In the grey scale reproduction in FIG. 2 the yellow-gold-orange structure appear light grey (yellow) or dark grey (gold-orange) before a grey background. Areas of degradation of lipofuscin in the hRPE cells appears as bright blue to whitish structures which appear white in the in the grey scale reproduction and are circled in FIG. 2A.\nThe bright blue structures are only observed in the experimental set up with SAD alone (FIG. 2A)."}, "RPE cells": {"tested_on": "RPE cells", "conditions": "healthy monkeys, human RPE cells from aged donors, mouse model for Stargardt's Disease; EP 2080513 A1 and literature; cited from earlier work"}, "[9]": {"conditions": "dyes and porphyrins, intravitreal 2 μl of 2 mg/mL, one week after injection"}, "[10]": {"conditions": "redox active small molecules and chelator, intravitreal 2 μl of 20 mg/ml, 16 hours after injection"}}, "note": "Like-named read-outs stand apart in the source and are kept apart here."}
{"compound": "verteporfin", "values": [{"measurement": "A2E", "setting": "[1]; 689 nm, 83 s", "value": 14.338, "unit": "µM"}, {"measurement": "A2E (% control)", "setting": "[1]; 689 nm, 83 s", "value": 44, "unit": "% control"}, {"measurement": "A2E", "setting": "[1]; non-illuminated, 5 min", "value": 28.864, "unit": "µM"}, {"measurement": "A2E (% control)", "setting": "[1]; non-illuminated, 5 min", "value": 89, "unit": "% control"}, {"measurement": "A2E", "setting": "[1]; white light, 5 min", "value": 1.295, "unit": "µM"}, {"measurement": "A2E (% control)", "setting": "[1]; white light, 5 min", "value": 4, "unit": "% control"}, {"measurement": "Proportion of compound bound to the melanin A2E particles after incubation", "setting": "melanin A2E particles", "value": "bind to the A2E melanin particles although to a lower percentage"}, {"measurement": "Verteporfin in the cells after incubation", "setting": "[2]; HuRPE, 1 h", "value": 339, "unit": "nM"}, {"measurement": "Verteporfin in the cells after incubation", "setting": "[2]; HuRPE, 18 h", "value": 1206, "unit": "nM"}, {"measurement": "Increase of verteporfin concentration in the cells after 18 h", "setting": "[2]; HuRPE, 18 h versus 1 h", "value": "about four-fold"}, {"measurement": "Concentration of verteporfin in HuRPE compared to ARPE-19", "setting": "[2]; after 1 h of incubation", "value": "more than two-fold"}, {"measurement": "Verteporfin in the cells after incubation", "setting": "[3]; ARPE-19, 1 h", "value": 159, "unit": "nM"}, {"measurement": "Verteporfin in the cells after incubation", "setting": "[3]; ARPE-19, 18 h", "value": 351, "unit": "nM"}, {"measurement": "Increase of verteporfin concentration in the cells after 18 h", "setting": "[3]; ARPE-19, 18 h versus 1 h", "value": "about two-fold"}, {"measurement": "Specific reductions of retinal fluorescence", "setting": "[4]", "value": "1-20%"}, {"measurement": "Removal of lipofuscin from the cytoplasm of RPE cells", "setting": "Abca4 (−/−) mice [5]", "value": "substantial amounts of lipofuscin and melanolipofuscin were removed from the cytoplasm of RPE cells"}, {"measurement": "% of A2E relative to age matched untreated", "setting": "Abca4 (−/−) mice [6]; [9]", "value": 90, "unit": "%"}, {"measurement": "Concentration A2E (μM) in the treated eye", "setting": "Abca4 (−/−) mice [6]; [9]", "value": 27, "unit": "µM"}]}
{"compound": "CN(C)[C@@H]1C(O)=C(C(N)=O)C(=O)[C@@]2(O)C(O)=C3C(=O)c4c(O)ccc(Cl)c4[C@@H](O)[C@H]3C[C@@H]12", "note": "[Demeclocycline]", "values": [{"measurement": "response vs control in vivo at 20000 µg/mL", "setting": "Abca4 (−/−) mice [6]; 168 h, tetracycline antibiotics, intravitreal 2 μl of 20 mg/ml, one week after injection", "value": 89, "unit": "%"}, {"measurement": "Concentration A2E (μM) in the treated eye", "setting": "Abca4 (−/−) mice [6]; tetracycline antibiotics, intravitreal 2 μl of 20 mg/ml, one week after injection", "value": 37, "unit": "µM"}, {"measurement": "Solubility", "setting": "[7]", "value": "notably less soluble"}]}
{"compound": "COCCO[C@@H]1c2ccn3c(C)c(C)nc3c2N[C@H](c2ccccc2)[C@H]1O", "note": "[Soraprazan, (7R,8R,9R)-2,3-Dimethyl-8-hydroxy-7-(2-methoxyethoxy)-9-phenyl-7,8,9,10-tetrahydro-imidazo[1,2-h] [1,7]naphthyridine]", "values": [{"measurement": "Degradation / removal of lipofuscin in hRPE cells", "setting": "[8]", "value": "removal of lipofuscin"}, {"measurement": "Degradation of the lipofuscin component A2E in cell free systems", "setting": "[1]; cell free, in solution under illumination by visible light", "value": "degraded"}, {"measurement": "Proportion of compound bound to the melanin A2E particles after incubation", "setting": "melanin A2E particles", "value": "about 46%"}, {"measurement": "response vs control in vivo at 20000 µg/mL", "setting": "Abca4 (−/−) mice [6]; [10]", "value": 61, "unit": "%"}, {"measurement": "Concentration A2E (μM) in the treated eye", "setting": "Abca4 (−/−) mice [6]; [10]", "value": 31, "unit": "µM"}, {"measurement": "Removal of natural lipofuscin from RPE cells", "setting": "RPE cells", "value": "remove natural lipofuscin from RPE cells"}]}
